Patent US20080318933A1, “5-Sulfonyl-1-Piperidinyl Substituted Indole Derivatives as 5-Ht6 Receptor Antagonists for the Treatment of Cns Disorders” (Glaxo Group Limited, priority 2004, published 2008)
Counter-ions that a name gives are not always drawn.

biological target: T1, human cloned 5-HT6 receptors (Homo sapiens, UniProt P50406); experiment: Cyclase assay (cAMP production in membranes of HeLa 5HT6 cells, 5-HT stimulated); type: biochemical; details: 5-HT at 4xEC50, functional Ki by Cheng-Prusoff, read-out: pKi values (converted)
T1 construct: expressed in transfected cells; host or cells: HeLa cells expressing cloned human 5-HT6 receptor (membranes)
T1 sequence (P50406 whole entry): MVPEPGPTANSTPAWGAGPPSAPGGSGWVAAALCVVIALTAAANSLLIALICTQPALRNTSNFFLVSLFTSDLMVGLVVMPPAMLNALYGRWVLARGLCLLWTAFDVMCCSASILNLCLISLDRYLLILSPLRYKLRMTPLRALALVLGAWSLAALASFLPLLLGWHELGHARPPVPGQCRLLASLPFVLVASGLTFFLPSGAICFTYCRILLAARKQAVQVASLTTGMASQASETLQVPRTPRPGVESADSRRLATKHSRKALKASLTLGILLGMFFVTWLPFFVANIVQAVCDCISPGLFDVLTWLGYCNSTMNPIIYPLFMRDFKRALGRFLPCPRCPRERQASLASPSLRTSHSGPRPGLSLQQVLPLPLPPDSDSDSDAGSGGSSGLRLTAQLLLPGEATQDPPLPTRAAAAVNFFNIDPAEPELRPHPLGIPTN
Description: 0.5 μl of test compound in 100% dimethylsulfoxide (DMSO) was added to a white, solid 384 well assay plate (for dose response measurements the top of the concentration range is 7.5 μM final). 10 μl of washed membranes of HeLa 5HT6 cells (for preparation see WO 98/27081) in basic buffer (50 mM HEPES pH 7.4 (KOH), 10 mM MgCl2, 100 mM NaCl, 10 μM 3-isobutyl-1-methylxanthine (IBMX) (Sigma-Aldrich)) was added to all wells followed by 10 μl 2×ATP buffer (i.e. basic buffer containing 3 mM ATP) with 5-HT (at a concentration equivalent to a dose response of 4×EC50). The resultant mixture was then incubated at room temperature for 30-45 minutes to allow cAMP production. cAMP production was then measured using the DiscoveRX™ HitHunter™ chemiluminescence cAMP assay kit (DiscoveRx Corporation, 42501 Albrae Street, Fremont, Calif. 94538; Product Code: 90-0004L) or any other suitable cAMP measurement assay.
IC50 values were estimated from arbitrary designated unit (ADU) measurements from a Perkin Elmer Viewlux instrument using a four parameter logistic curve fit within EXCEL (Bowen, W. P. and Jerman, J. C. (1995), Nonlinear regression using spreadsheets. Trends in Pharmacol. Sci., 16, 413-417). Functional Ki values were calculated using the method of Cheng, Y. C. and Prussof, W. H. (Biochemical Pharmacol (1973) 22 3099-3108). plC50 and fpKi are the negative log 10 of the molar IC50 and functional Ki respectively.

Structure (SMILES) | Ki [µM]
CCN1CCC(N2CCc3cc(S(=O)(=O)c4ccccc4)ccc32)CC1 [Example E39, 1-(1-Ethyl-4-piperidinyl)-5-(phenylsulfonyl)-2,3-dihydro-1H-indole hydrochloride] | ≤ 0.01
CCCN1CCC(N2CCc3cc(S(=O)(=O)c4ccccc4)ccc32)CC1 [Example E40, 5-(Phenylsulfonyl)-1-(1-propyl-4-piperidinyl)-2,3-dihydro-1H-indole hydrochloride] | ≤ 0.01
CN1CCC(N2CCc3cc(S(=O)(=O)c4ccc(F)cc4)ccc32)CC1 [Example E41, 5-[(4-Fluorophenyl)sulfonyl]-1-(1-methyl-4-piperidinyl)-2,3-dihydro-1H-indole hydrochloride] | ≤ 0.01
CCN1CCC(N2CCc3cc(S(=O)(=O)c4cc(F)ccc4F)ccc32)CC1 [Example E42, 5-[(2,5-Difluorophenyl)sulfonyl]-1-(1-ethyl-4-piperidinyl)-2,3-dihydro-1H-indole hydrochloride] | ≤ 0.01
CC(C)N1CCC(N2CCc3cc(S(=O)(=O)c4cc(F)ccc4F)ccc32)CC1 [Example E43, 5-[(2,5-Difluorophenyl)sulfonyl]-1-[1-(1-methylethyl)-4-piperidinyl]-2,3-dihydro-1H-indole hydrochloride] | ≤ 0.01
CCCN1CCC(N2CCc3cc(S(=O)(=O)c4cc(F)ccc4F)ccc32)CC1 [Example E44, 5-[(2,5-Difluorophenyl)sulfonyl]-1-(1-propyl-4-piperidinyl)-2,3-dihydro-1H-indole hydrochloride] | ≤ 0.01
CC(C)N1CCC(N2CCc3cc(S(=O)(=O)c4ccccc4F)ccc32)CC1 [Example E45, 5-[(2-Fluorophenyl)sulfonyl]-1-[1-(1-methylethyl)-4-piperidinyl]-2,3-dihydro-1H-indole hydrochloride] | ≤ 0.01

The next lines start with the values.

Ki [µM] | Structure (SMILES)
≤ 0.01 | CCCN1CCC(N2CCc3cc(S(=O)(=O)c4ccccc4F)ccc32)CC1 [Example E46, 5-[(2-Fluorophenyl)sulfonyl]-1-(1-propyl-4-piperidinyl)-2,3-dihydro-1H-indole hydrochloride]
≤ 0.01 | CN1CCC(N2CCc3cc(S(=O)(=O)c4cccc(F)c4)ccc32)CC1 [Example E47, 5-[(3-Fluorophenyl)sulfonyl]-1-(1-methyl-4-piperidinyl)-2,3-dihydro-1H-indole hydrochloride]
≤ 0.01 | CN1CCC(N2CCc3cc(S(=O)(=O)c4ccccc4F)ccc32)CC1 [Example E48, 5-[(2-Fluorophenyl)sulfonyl]-1-(1-methyl-4-piperidinyl)-2,3-dihydro-1H-indole hydrochloride]
≤ 0.01 | CN1CCC(N2CCc3cc(S(=O)(=O)c4ccccc4Cl)ccc32)CC1 [Example E49, 5-[(2-Chlorophenyl)sulfonyl]-1-(1-methyl-4-piperidinyl)-2,3-dihydro-1H-indole hydrochloride]
≤ 0.01 | CN1CCC(N2CCc3cc(S(=O)(=O)c4cc(F)cc(F)c4)ccc32)CC1 [Example E50, 5-[(3,5-Difluorophenyl)sulfonyl]-1-(1-methyl-4-piperidinyl)-2,3-dihydro-1H-indole hydrochloride]
≤ 0.01 | CCN1CCC(N2CCc3cc(S(=O)(=O)c4cc(F)cc(F)c4)ccc32)CC1 [Example E51, 5-[(3,5-Difluorophenyl)sulfonyl]-1-(1-ethyl-4-piperidinyl)-2,3-dihydro-1H-indole hydrochloride]
≤ 0.01 | CC(C)N1CCC(N2CCc3cc(S(=O)(=O)c4cc(F)cc(F)c4)ccc32)CC1 [Example E52, 5-[(3,5-Difluorophenyl)sulfonyl]-1-[1-(1-methylethyl)-4-piperidinyl)-2,3-dihydro-1H-indole hydrochloride]
≤ 0.01 | CN1CCC(N2CCc3cc(S(=O)(=O)c4cccc(Cl)c4)ccc32)CC1 [Example E53, 5-[(3-Chlorophenyl)sulfonyl]-1-(1-methyl-4-piperidinyl)-2,3-dihydro-1H-indole hydrochloride]
